The results in this text go back to patent publication US20260199496A1, “LINKER, LINKER-CONTAINING ANTIBODY DRUG CONJUGATE, AND PREPARATION METHOD THEREFOR AND USE THEREOF” (CHENGDU CHIPSCREEN NEWWAY BIOSCIENCES CO., LTD., priority 2022, published 2026).

The test system of assay [1] is CT26 hPD-L1-EX cells. Description: Inhibition of CT26 hPD-L1-EX cell proliferation (MTS). The format is cell-based. The conditions noted are these: replicate wells; for Inhibition % / OD490: 5 μM, 48 h. The method, then:
(1) CT26 hPD-L1-EX cells were collected, and 20 μL was taken for cell counting. (2) The cells were resuspended to 0.5×10^5 cells/mL and 0.5×10^5 cells/mL (5 mL each). (3) The cell suspensions were respectively added to two 96-well plates at 50 μL/well, followed by overnight culture at 37° C. with 5% CO2. (4) The ADC sample was diluted according to predetermined concentrations and added to the well plates at 100 μL/well. (5) The cells were cultured at 37° C. with 5% CO2 for 48 h. (6) 50 μL of culture medium was first aspirated and discarded, and then an MTS reagent was added at 20 μL/well. The cells were cultured at 37° C. with 5% CO2 for another 1-4 h. (7) Readings were taken at 490 nm.

The test system of assay [2] is CT26 hPD-L1-EX cells. Kind of assay: Inhibition of CT26 hPD-L1-EX cell proliferation (CCK8). The assay is classed as cell-based. The conditions noted are these: 2 days, CCK8, replicate wells; for Inhibition % / OD450: 10 μM. As to the method:
(1) CT26 hPD-L1-EX cells were collected, and 20 μL was taken for cell counting. (2) The cells were resuspended to 2×10^5 cells/mL. (3) The cell suspension was added to a 96-well plate at 50 μL/well (1×10^4 cells/well), followed by overnight culture at 37° C. with 5% CO2. (4) The next day, the 96-well plate was taken out. The test sample was diluted with complete medium containing 10% FBS and then added to the plate at 50 µL/well to achieve a final sample concentration of 10 μM. The day of test sample addition was designated as day 0. The cells were cultured at 37° C. with 5% CO2 for another 2 days. (5) Day 2: The cell growth status was observed under a microscope, and then CCK8 was added at 10 μL/well. The cells were then cultured at 37° C. with 5% CO2 for another 4 h. (6) Absorbance values at 450 nm (OD450) were measured in real-time using a microplate reader.

Assay [3] deals with A375-hPDL1-Luciferase cells. Description: Inhibition of A375 in co-culture with human PBMCs (luciferase). The assay is classed as cell-based. The settings on record: PBMC:A375 E:T 5:1, Matrigel, 6 days. The method, then: Cryopreserved PBMCs were taken out from a liquid nitrogen tank and added to 8 mL of pre-heated RPMI 1640 medium, and the mixture was centrifuged at 500 g for 10 min. The supernatant was discarded, and the PBMCs were resuspended in a small amount of RPMI 1640 medium. Then, the cell suspension was 10-fold diluted, and 20 μL of dilution was taken for cell counting. The cells were resuspended to 5E6 cells/mL. The A375-hPDL1-Luciferase cell suspension was collected, and 20 μL was taken for cell counting. The cells were resuspended to 1E6 cells/mL. The PBMC and A375-hPDL1-Luciferase cell suspensions were mixed at equal volumes to prepare a cell mixture with an E:T ratio of 5:1, and the mixture was adjusted to a total volume of 1500 L using RPMI 1640 complete medium. Matrigel was thawed on ice, and 1500 L of the thawed Matrigel was mixed with the cell mixture. The resulting mixture was added to a black 384-well plate at 20 μL/well, which was then placed at 37° C. for 10 min for solidification. […] The dilutions were added to the 384-well plate at 30 μL/well, and the cells were cultured at 37° C. with 5% CO2 for 6 days. Then, the 384-well plate was taken out, and Bio-Lite Luciferase Assay System was added at 20 μL/well. The mixture was incubated for 5-10 min and then assayed using a multi-mode microplate reader. The results are shown in FIG. 31, FIG. 32, and Table 7.

For assay [4], the target named is hPD-L1-his (Homo sapiens, UniProt Q9NZQ7). Kind of assay: SPR (Biacore T200) affinity for hPD-L1-his. The settings on record: 1:1 binding model. On the technique in general: Surface plasmon resonance follows binding to a sensor surface in real time, without labels.
Chain of hPD-L1-his (Q9NZQ7 19-290): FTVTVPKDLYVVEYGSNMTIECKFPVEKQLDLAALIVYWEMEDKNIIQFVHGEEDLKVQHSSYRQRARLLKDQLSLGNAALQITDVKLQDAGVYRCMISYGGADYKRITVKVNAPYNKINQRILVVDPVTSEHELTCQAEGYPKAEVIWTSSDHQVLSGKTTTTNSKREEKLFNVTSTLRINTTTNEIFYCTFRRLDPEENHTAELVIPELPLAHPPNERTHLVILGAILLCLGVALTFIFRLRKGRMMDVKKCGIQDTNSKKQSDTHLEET
Procedure: The procedures were as follows: A CM5 chip was activated with N-hydroxysuccinimide (NHS) and 1-ethyl-3-(3-dimethylaminopropyl)carbodiimide hydrochloride (EDC) at a 1:1 (v/v) ratio. Then, an anti-his antibody was immobilized, and the chip was blocked. 1 g/mL hPD-L1-his was captured onto the chip surface. […] The program was set. The samples were then loaded, and the program was executed. Data were analyzed using the Biacore Evaluation Software with the 1:1 binding model for kinetic fitting.
For assay [5], the target named is mPD-L1-his (Mus musculus, UniProt Q9EP73). Kind of assay: SPR (Biacore T200) affinity for mPD-L1-his. The settings on record: ligand mPD-L1-His, 1:1 binding model.
Chain of mPD-L1-his (Q9EP73 19-290): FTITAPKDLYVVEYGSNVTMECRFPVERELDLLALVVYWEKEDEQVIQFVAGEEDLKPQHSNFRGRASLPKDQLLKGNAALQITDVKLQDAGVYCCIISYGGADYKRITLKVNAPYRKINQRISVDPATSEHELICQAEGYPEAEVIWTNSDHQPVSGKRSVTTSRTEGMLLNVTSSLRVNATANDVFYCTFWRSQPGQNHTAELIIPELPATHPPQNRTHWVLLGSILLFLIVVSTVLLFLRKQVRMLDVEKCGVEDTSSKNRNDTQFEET
Procedure: The program was set. The samples were then loaded, and the program was executed. Data were analyzed using the Biacore Evaluation Software with the 1:1 binding model for kinetic fitting. The above steps were repeated. 2 μg/mL hPD-L1-his, 5 μg/mL mPD-L1-his, and 5 g/mL Rat PD-L1-his were captured onto the chip surface separately. The above 4 samples were 2-fold diluted with 1×PBST. […] The program was set. The samples were then loaded, and the program was executed. Data were analyzed using the Biacore Evaluation Software with the 1:1 binding model for kinetic fitting.
For assay [6], the system named is MC38 tumor. Description: C57BL/6J mouse MC38 tumor model, ADC vs naked antibody (18.1). The conditions noted are these: 10 mg/kg intraperitoneal, three times per week, day 7 post-administration. The format is in vivo. The method, then: 18.1. The specific procedures were as follows: On the day of cell inoculation, each C57BL/6J mouse was subcutaneously inoculated with 3×10^5 MC38 cells (0.1 mL/mouse). When the average tumor volume in mice reached about 70-80 mm^3, grouping was performed. A total of 24 mice were divided into 3 groups, and drug administration began on the day of grouping. The administration regimen was three times per week, and the route of administration was intraperitoneal injection. […] The vehicle control group was intraperitoneally injected with an equivalent volume of PBS solution. After the start of administration, the body weight and tumor volume were measured three times per week. The tumor volume was calculated as: tumor volume (mm^3)=0.5×long diameter of tumor×(short diameter of tumor)^2. The experiment was terminated on day 7 post-administration. All mice were euthanized, and tumor tissues were collected and weighed.

Assay [7] has as its target Rat PD-L1-his (Rattus norvegicus, UniProt D4AE25). Description: SPR (Biacore T200) affinity for Rat PD-L1-his. The conditions noted are these: ligand Rat-PD-L1-His, 1:1 binding model. The method, then: (§1) […] Cyno PD-L1-his was captured onto the chip surface. The antibody-drug conjugate samples and the naked antibody sample were 2-fold diluted with 1×PBST to give a total of 7 concentration points, with the sample concentrations all being 25 nM-0.39 nM. The program was set. The samples were then loaded, and the program was executed. Data were analyzed using the Biacore Evaluation Software with the 1:1 binding model for kinetic fitting. The above steps were repeated. 2 μg/mL hPD-L1-his, 5 μg/mL mPD-L1-his, and 5 µg/mL Rat PD-L1-his were captured onto the chip surface separately. The above 4 samples were 2-fold diluted with 1×PBST. […] The program was set. The samples were then loaded, and the program was executed. Data were analyzed using the Biacore Evaluation Software with the 1:1 binding model for kinetic fitting.

Assay [8] addresses Cyno PD-L1-his. Kind of assay: SPR (Biacore T200) affinity for Cyno PD-L1-his. Further details: species or system cynomolgus monkey. The conditions noted are these: ligand Cyno PD-L1-His, 1:1 binding model. As to the method: as §1
Assay [9] concerns NCI-H292 cells. Description: Internalization in human lung cancer cell line NCI-H292. The format is cell-based. The conditions noted are these: NCI-H292, 150 nM, 2 h, 4 h, 22 h; FIG. 28. The method, then:
(1) NCI-H292 cells were collected, and 20 µL was taken for cell counting. (2) The cells were resuspended to 6×10^6 cells/mL, and the cell suspension was added into two 1.5-mL EP tubes at 100 μL/tube. (3) Diluted antibody-drug conjugate (ADC) group and antibody group samples were added separately at 100 L/tube, achieving a final sample concentration of 150 nM. The mixtures were thoroughly mixed and then incubated at 4° C. in the dark for 1 h. (4) The mixtures were washed twice with pre-cooled PBS and centrifuged at 1200 rpm for 5 min at 4° C., and then the supernatants were discarded. (5) Complete medium was added at 300 μL/tube to resuspend the cells, and the cell suspensions were separately transferred to new EP tubes at 150 L/tube, with one tube kept at 4° C. and the other incubated at 37° C. (6) After 2 h, 4 h, and 22 h, 50 L of cell suspension was collected from each of the 4° C. and 37° C. tubes, transferred to new EP tubes, mixed with 1 mL of pre-cooled PBS, and centrifuged at 1200 rpm for 5 min at 4° C., and then the supernatants were discarded. […] (9) Pre-cooled PBS was then added at 100 L/tube to resuspend the cells, and the cell suspensions were analyzed on a machine. (10) The internalization rate was calculated using the following formula: Internalization (%)=positive rate4° C. […]

Where [10] appears, read: Table 3-1, ligand hPD-L1-His captured.

By inhibition is commonly meant the percentage by which the read-out fell short of the control. The term IC50 denotes the concentration at which inhibition is half-maximal. In general, Kd refers to the constant that tells how readily two partners part at equilibrium.

Where “and” joins values, the source holds several entries; their conditions need not be identical. Identical values can stand only once. Where only a bound is given, the exact number is not on record here.

Chain of Rat PD-L1-his (D4AE25 1-290): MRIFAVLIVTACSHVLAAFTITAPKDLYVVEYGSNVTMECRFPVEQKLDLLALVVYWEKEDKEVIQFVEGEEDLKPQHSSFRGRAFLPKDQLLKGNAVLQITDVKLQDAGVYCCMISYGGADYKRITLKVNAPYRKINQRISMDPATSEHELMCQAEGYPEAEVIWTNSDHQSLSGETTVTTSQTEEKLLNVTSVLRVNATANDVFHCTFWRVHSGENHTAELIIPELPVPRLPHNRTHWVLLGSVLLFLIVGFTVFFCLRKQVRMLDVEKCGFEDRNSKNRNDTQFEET

On to `Nc1cc(F)ccc1NC(=O)c1ccc(CNC(=O)/C=C/c2cccnc2)cc1` [Chidamide, reference compound], for which, in [1], the Inhibition % is given as 11.73%; the OD490 is 1.0283 and 1.0841. Besides, at 5 µM the inhibition in [1] (Mus musculus, CT26, 48 h) was 16.1%. For the same molecule, in [2], the Inhibition % was 14.58% and 12.16%; the OD450 is 1.9014 and 1.9554 and 1.7934. The inhibition at 10 µM in assay [2] (Mus musculus, CT26, 48 h) worked out at 19.4%. The molecule also showed an IC50 in assay [3] of 823 nM.

With atezolizumab [Ate antibody], in assay [1], the Inhibition % was 4.42% and 5.66%; the OD490 was 1.1715 and 1.1587. In assay [4] (setting [10]), the “ka” value was determined as 1.26e+06 M⁻¹ s⁻¹ and the “kd (1/s)” value is reported as <10^−5 1/s. In addition, in assay [4] (Table 3-2, ligand hPD-L1-His), the “ka” value is 2.46e+06 M⁻¹ s⁻¹ and the “kd” value was below 1e-05 s⁻¹. Also, in [2], the Inhibition % was 13.08% and 4.39% and 10.94%; the OD450 is 2.1282 and 1.9824 and 1.9349. Further, in assay [5], the “ka” value was 1.76e+06 M⁻¹ s⁻¹ and the “kd” value was 0.000119 s⁻¹. Moreover, in [6], the “tumor growth inhibition rate TGI (%)” value was 16.26% and the tumor volume was 701.09 mm^3. Moreover, in assay [7], the “ka” value came out at 2.86e+06 M⁻¹ s⁻¹ and the “kd” value was 0.000981 s⁻¹. In assay [8], the Kd was 0.0826 nM, the “ka” value worked out at 1.58e+06 M⁻¹ s⁻¹ and the “kd” value amounted to 0.00013 s⁻¹. Besides, the “tumor cell internalization rate” value in assay [9] is listed as “increased over time”.
